Data published in US20080039434A1, “Treatment of Interstitial Cystitis with Vitamin D Compounds” (BioXell S. p.A., priority 2004, published 2008).
“And” between values parts separate entries of the source, which are not always exact repeats. Equal values may be shown once.

Assays:
total IgE = experiment: Serum total IgE ELISA, allergic IC in mice; type: in vivo, mouse; details: 75 ug/kg oral vs vehicle; ovalbumin-sensitized BALB/c mice
Procedure: Mice (BALB/c, females 8 weeks old, weight 18-20 g, Charles River, Calco ITA) were sensitized by injecting 10 ug/mouse of chicken ovalbumin from Sigma (OVA, grade V) in the presence of 4 mg of alum (SERVA, Germany) by intraperitoneal injection, once a week for 4 weeks. This induces a sustained level of IgE detectable in serum.
One or two weeks after the last immunization boost, sensitized mice were anesthetized (1.5% Isoflurane) and then trans-urethrally catheterized (24 gauge, ¾ in.; Angiocath, Becton-Dickson). Slight digital pressure was applied the lower abdomen to drain the urine.
The urinary bladders were instilled with either 150 ul of either saline or OVA alone, (1 mg/150 ul) infused at a slow rate to avoid trauma and vesico-ureteral reflux and repeated twice within a 30-min interval with the syringe kept in place on the catheter for at least 30 min. Intravesical challenge was repeated 7-10 days after the first one with the same procedure. […]
Serum total IgE levels were measured by using a commercially available kit (BD Opteia, Mouse IgE ELISA Set Cat. No. 555248) and following manufacturer's instructions. […] After reaction stopping (H2SO4 1M, 50 ul/well) absorbance at 450 nm was recorded within 30 minutes.

[1] = Calcemia assessment in CYP rats (colorimetric serum calcium assay); type: in vivo, rat; details: both dosage levels (30 and 75 ug/kg); limit of normal range 10.7 mg/dl in rats
Procedure: Serum calcemia was evaluated by a commercially available calorimetric assay (Calcium Dry-Fast, Sentinel CH. Italy). Briefly, 10 ul serum were added to 100 ul reaction solution prepared according to the manufacturer's procedure in a 96-wells plate. After 5 min incubation at RT samples were read at 570 nm with a spectrophotometer and the calcium levels were calculated in triplicate by using a standard reference as directed.

[2] = test system: rats with CYP-induced cystitis; experiment: Cystometry in conscious rats with cyclophosphamide (CYP) induced chronic IC, Compound A; type: in vivo, rat; parameters: Bl. Cap. / FP / TP / MP / amplitude of NVBC: unit not given here; details: Compound A oral 0.1 μg/kg daily for 14 days
Source text: The rat model of chemical cystitis induced by intraperitoneal injection of CYP has been Well accepted. CYP is used in clinical practice in the treatment of a number of malignant tumors. One of its metabolites, acrolein, is excreted in urine in large concentrations causing hemorrhagic cystitis associated with symptoms of urinary frequency, urgency and pelvic pain. The inflammatory process is characterized by changes in gross histology of bladder, increase in number and distribution of inflammatory cell infiltrates (mast cells, macrophage, PMNs), cyclo-oxygenase-2 expression and prostaglandin production, growth factor and cytokine production. The rat model of chemical cystitis closely resembles interstitial cystitis, a chronic, painful urinary bladder syndrome and has been used for the testing of therapeutic agents in the past.
This model was used to test the effects of oral administration of 1,25-dihydroxyvitamin D3 analogue in rats with CYP-induced cystitis. The effects of the treatment on the cystometric parameters in a conscious freely moving rat with CYP-induced cystitis were monitored. The following cystometric parameters were recorded in each animal: • bladder capacity • filling pressure (pressure at the beginning of the bladder filling) • threshold pressure (bladder pressure immediately prior to micturition) • micturition pressure (the maximal bladder pressure during micturition) • presence or absence of non-voiding bladder contractions (increases in bladder pressure of at least 10 cm H2O without release of urine) • amplitude of non-voiding bladder contraction.
Animals: Wistar female rats, age 8 weeks, weighing 125-175 g were used. […] Following recovery all animals received three intraperitoneal injections of CYP and subsequently were divided into the treatment and sham control groups.
Treatment group: Rats treated with oral 1,25-dihydroxyvitamin D3 analog (1,3-Di-O-acetyl-1,25-dihydroxy-16,23Z-diene-26,27-hexafluoro-19-nor-cholecalciferol) “Compound A” for 14 days (daily dose of 0.1 μg/kg)
Cystometry was performed 24 hours following the last dose of the drug or vehicle on awake freely moving animals.
A lower midline abdominal incision was performed under general inhalation anesthesia (isoflurine with O2) and polyethylene tubing (PE-50, Clay Adams, Parsippany, N.J.) with the end flared by heat was inserted into the dome of the bladder and secured in place with a 6-0 prolene purse string suture. The distal end of the tubing was heat-sealed, tunneled subcutaneously and externalized at the back of the neck, out of the animal's reach. Abdominal and neck incisions were closed with 4-0 nylon sutures.
Following recovery (5 days) subject animals underwent three intraperitoneal injections of CYP (Sigma Chemical, St. Luis, Mo.; 75 mg/kg each, intraperitoneal) over the period of nine days. On the tenth day following the first CYP injection the sham control animals received the vehicle only, whereas the experimental group were treated with the 1,25-dihydroxyvitamin D3 analogue 1,3-Di-O-acetyl-1,25-dihydroxy-16,23Z-diene-26,27-hexafluoro-19-nor-cholecalciferol “Compound A” (delivered orally using gavage). Two weeks following the initiation of the treatment animals underwent a conscious cystometrogram to assess the function of the urinary bladder.
An animal was placed unrestrained in a cage and the catheter was connected via a T-tube to a pressure transducer (Grass® Model PT300, West Warwick, R.I.) and microinjection pump (Harvard Apparatus 22, South Natick, Mass.). A 0.9% saline solution was infused at room temperature into the bladder at a rate of 10 ml/hour. […]. At least three reproducible micturition cycles were recorded after the initial stabilization period of 25-30 minutes.

| SMILES | total amount of IgE in serum (total IgE) | average serum calcium levels [1] | Bl. Cap. ([2]; CYP cystitis, individual rats RB7, RB13, RB15, three micturition cycles each) | amplitude of NVBC ([2]; individual rats, three micturition cycles each) | FP ([2]; filling pressure, individual rats, three micturition cycles each) | MP ([2]; micturition pressure, individual rats, three micturition cycles each) | # of NVBC ([2]; non-voiding bladder contractions, individual rats, three micturition cycles each) | TP ([2]; threshold pressure, individual rats, three micturition cycles each) |
| --- | --- | --- | --- | --- | --- | --- | --- | --- |
| C=C1/C(=C\C=C2/CCC[C@]3(C)C([C@@H](C)C/C=C/C(O)(CC)CC)=CC[C@@H]23)C[C@@H](O)C[C@@H]1F [Compound B, 1-alpha-fluoro-25-hydroxy-16,23E-diene-26,27-bishomo-20-epi-cholecalciferol] | no significant changes | only slightly but not significantly elevated |  |  |  |  |  |  |
| CC(=O)OC1C/C(=C/C=C2\CCC[C@]3(C)C(C(C)C/C=C\C(O)(C(F)(F)F)C(F)(F)F)=CCC23)C[C@@H](OC(C)=O)C1 (some centres unmarked) [Compound A, 1,3-Di-O-acetyl-1,25-dihydroxy-16,23Z-diene-26,27-hexafluoro-19-nor-cholecalciferol] |  |  | 1.9 and 1.3 (2×) and 2.5 and 1.5 and 0.7 (2×) and 0.8 and 1.4 | 10 and 11 (2×) and 0 (6×) | 15 and 14 (3×) and 12 and 11 and 10 and 13 (2×) | 105 and 97 (2×) and 90 and 100 and 108 and 98 and 101 and 104 | 4 and 8 (2×) and 0 (6×) | 16 and 17 and 14 (4×) and 12 and 11 and 15 |
